Laboratory results from ChEMBL document CHEMBL3632622, “Synthesis and biological evaluation of novel N-phenyl ureidobenzenesulfonate derivatives as potential anticancer agents. Part 2. Modulation of the ring B” (Eur J Med Chem, 2015).
Active and inactive are the calls of the source. The calls are words filed in the database; no cut-off is given here.

Assays:
[1] = Antiproliferative activity against human HT1080 cells assessed as growth inhibition incubated for 48 hrs by sulforhodamine B assay; format: functional, cell-based, HT-1080
M21 [2] = experiment: Antiproliferative activity against human M21 cells assessed as growth inhibition incubated for 48 hrs by sulforhodamine B assay; format: functional, cell-based; conditions: M21, 48 h
HT-29 = experiment: Antiproliferative activity against human HT-29 cells assessed as growth inhibition incubated for 48 hrs by sulforhodamine B assay; format: functional, cell-based; conditions: HT-29, 48 h
MCF7 = experiment: Antiproliferative activity against human MCF7 cells assessed as growth inhibition incubated for 48 hrs by sulforhodamine B assay; format: functional, cell-based; conditions: MCF7, 48 h
M21 [3] = experiment: Cell cycle arrest in human M21 cells assessed as accumulation at subG1 phase at 7.6 uM after 24 hrs by DAPI staining-based flow cytometry (reference value: 1.5%); format: functional
M21 [4] = experiment: Cell cycle arrest in human M21 cells assessed as accumulation at G0/G1 phase at 7.6 uM after 24 hrs by DAPI staining-based flow cytometry (reference value: 65.1%); format: functional
M21 [5] = experiment: Cell cycle arrest in human M21 cells assessed as accumulation at S phase at 7.6 uM after 24 hrs by DAPI staining-based flow cytometry (reference value: 17.4%); format: functional
M21 [6] = experiment: Cell cycle arrest in human M21 cells assessed as accumulation at G2/M phase at 7.6 uM after 24 hrs by DAPI staining-based flow cytometry (reference value: 16%); format: functional
M21 [7] = experiment: Cell cycle arrest in human M21 cells assessed as accumulation at subG1 phase at 39 uM after 24 hrs by DAPI staining-based flow cytometry (reference value: 1.5%); format: functional
M21 [8] = experiment: Cell cycle arrest in human M21 cells assessed as accumulation at G0/G1 phase at 39 uM after 24 hrs by DAPI staining-based flow cytometry (reference value: 65.1%); format: functional
M21 [9] = experiment: Cell cycle arrest in human M21 cells assessed as accumulation at S phase at 39 uM after 24 hrs by DAPI staining-based flow cytometry (reference value: 17.4%); format: functional
M21 [10] = experiment: Cell cycle arrest in human M21 cells assessed as accumulation at G2/M phase at 39 uM after 24 hrs by DAPI staining-based flow cytometry (reference value: 16%); format: functional
M21 [11] = experiment: Cell cycle arrest in human M21 cells assessed as accumulation at subG1 phase at 13 uM after 24 hrs by DAPI staining-based flow cytometry (reference value: 1.5%); format: functional
M21 [12] = experiment: Cell cycle arrest in human M21 cells assessed as accumulation at G0/G1 phase at 13 uM after 24 hrs by DAPI staining-based flow cytometry (reference value: 65.1%); format: functional
M21 [13] = experiment: Cell cycle arrest in human M21 cells assessed as accumulation at S phase at 13 uM after 24 hrs by DAPI staining-based flow cytometry (reference value: 17.4%); format: functional
M21 [14] = experiment: Cell cycle arrest in human M21 cells assessed as accumulation at G2/M phase at 13 uM after 24 hrs by DAPI staining-based flow cytometry (reference value: 16%); format: functional
M21 [15] = experiment: Cell cycle arrest in human M21 cells assessed as accumulation at subG1 phase at 34 uM after 24 hrs by DAPI staining-based flow cytometry (reference value: 1.5%); format: functional
M21 [16] = experiment: Cell cycle arrest in human M21 cells assessed as accumulation at G0/G1 phase at 34 uM after 24 hrs by DAPI staining-based flow cytometry (reference value: 65.1%); format: functional
M21 [17] = experiment: Cell cycle arrest in human M21 cells assessed as accumulation at S phase at 34 uM after 24 hrs by DAPI staining-based flow cytometry (reference value: 17.4%); format: functional
M21 [18] = experiment: Cell cycle arrest in human M21 cells assessed as accumulation at G2/M phase at 34 uM after 24 hrs by DAPI staining-based flow cytometry (reference value: 16%); format: functional
M21 [19] = experiment: Cell cycle arrest in human M21 cells assessed as accumulation at G0/G1 phase at 8.1 uM after 24 hrs by DAPI staining-based flow cytometry (reference value: 65.1%); format: functional
M21 [20] = experiment: Cell cycle arrest in human M21 cells assessed as accumulation at S phase at 8.1 uM after 24 hrs by DAPI staining-based flow cytometry (reference value: 17.4%); format: functional
M21 [21] = experiment: Cell cycle arrest in human M21 cells assessed as accumulation at G2/M phase at 8.1 uM after 24 hrs by DAPI staining-based flow cytometry (reference value: 16%); format: functional
M21 [22] = experiment: Cell cycle arrest in human M21 cells assessed as accumulation at subG1 phase at 8.1 uM after 24 hrs by DAPI staining-based flow cytometry (reference value: 1.5%); format: functional
M21 [23] = experiment: Induction DNA DSBs in human M21 cells assessed as increase in gamma H2AX foci at 20 uM incubated for 24 hrs by DAPI staining based immunocytochemistry; format: cell-based
M21 [24] = experiment: Cell cycle arrest in human M21 cells assessed as accumulation at G0/G1 phase at 4.1 uM after 24 hrs by DAPI staining-based flow cytometry (reference value: 65.1%); format: functional
M21 [25] = experiment: Cell cycle arrest in human M21 cells assessed as accumulation at S phase at 4.1 uM after 24 hrs by DAPI staining-based flow cytometry (reference value: 17.4%); format: functional
M21 [26] = experiment: Cell cycle arrest in human M21 cells assessed as accumulation at G2/M phase at 4.1 uM after 24 hrs by DAPI staining-based flow cytometry (reference value: 16%); format: functional
M21 [27] = experiment: Cell cycle arrest in human M21 cells assessed as accumulation at subG1 phase at 4.1 uM after 24 hrs by DAPI staining-based flow cytometry (reference value: 1.5%); format: functional
M21 [28] = experiment: Induction DNA DSBs in human M21 cells assessed as increase in gamma H2AX foci at 4.1 uM incubated for 24 hrs by DAPI staining based immunocytochemistry; format: cell-based
M21 [29] = experiment: Cell cycle arrest in human M21 cells assessed as accumulation at G0/G1 phase at 1 uM after 24 hrs by DAPI staining-based flow cytometry (reference value: 65.1%); format: functional
M21 [30] = experiment: Cell cycle arrest in human M21 cells assessed as accumulation at S phase at 1 uM after 24 hrs by DAPI staining-based flow cytometry (reference value: 17.4%); format: functional
M21 [31] = experiment: Cell cycle arrest in human M21 cells assessed as accumulation at G2/M phase at 1 uM after 24 hrs by DAPI staining-based flow cytometry (reference value: 16%); format: functional
M21 [32] = experiment: Cell cycle arrest in human M21 cells assessed as accumulation at subG1 phase at 1 uM after 24 hrs by DAPI staining-based flow cytometry (reference value: 1.5%); format: functional
M21 [33] = experiment: Induction DNA DSBs in human M21 cells assessed as increase in gamma H2AX foci at 1 uM incubated for 24 hrs by DAPI staining based immunocytochemistry; format: cell-based
[34] = Homo sapiens, HT-1080, 48 h, read-out: IC50

Row | SMILES | IC50 (HT-29) [µM] | IC50 (MCF7) [µM] | IC50 [1, 34] [µM] | IC50 (M21 [2]) [µM] | other results
1 | Cc1ccc(C)c(OS(=O)(=O)c2ccc(NC(=O)NCCCl)cc2)c1 | 1.5 | 1.9 | 1.7 | 1.5 | Activity (M21 [3]): 5.5%; Activity (M21 [4]): 7.2%; Activity (M21 [5]): 11.9%; Activity (M21 [6]): 75.4%
2 | O=C(NCCCl)Nc1ccc(S(=O)(=O)Oc2cccc([N+](=O)[O-])c2)cc1 | 17 | 18 | 10 | 17 | 
3 | Cc1cc(OS(=O)(=O)c2ccc(NC(=O)NCCCl)cc2)cc(C)c1C | 6.6 | 9.4 | 9 | 6.5 | Activity (M21 [7]): 8.7%; Activity (M21 [8]): 11.4%; Activity (M21 [9]): 14.8%; Activity (M21 [10]): 65.1%
4 | O=C(NCCCl)Nc1ccc(S(=O)(=O)Oc2cc(F)c(F)c(F)c2)cc1 | 9.9 | 11.3 | 9.8 | 11.3 | 
5 | O=C(NCCCl)Nc1ccc(S(=O)(=O)Oc2cccc(Br)c2)cc1 | 2.1 | 2.6 | 2 | 2.2 | Activity (M21 [11]): 4.4%; Activity (M21 [12]): 1.6%; Activity (M21 [13]): 1.6%; Activity (M21 [14]): 92.4%
6 | O=C(NCCCl)Nc1ccc(S(=O)(=O)Oc2cccc(Cl)c2)cc1 | 2.8 | 3.7 | 2.6 | 2.6 | Activity (M21 [11]): 5.2%; Activity (M21 [12]): 7.2%; Activity (M21 [13]): 7%; Activity (M21 [14]): 80.6%
7 | CCNC(=O)Nc1ccc(S(=O)(=O)Oc2ccccc2CC)cc1 |  |  | 0.36 |  | 
8 | O=C(NCCCl)Nc1ccc(S(=O)(=O)Oc2cccc(F)c2)cc1 | 5.5 | 7.8 | 4.5 | 5.3 | Activity (M21 [15]): 6.2%; Activity (M21 [16]): 2.5%; Activity (M21 [17]): 4.4%; Activity (M21 [18]): 86.9%
9 | O=C(NCCCl)Nc1ccc(S(=O)(=O)Oc2ccccc2F)cc1 | 5.4 | 6 | 3.2 | 4 | Activity (M21 [19]): 25.2%; Activity (M21 [20]): 37.6%; Activity (M21 [21]): 34.6%; Activity (M21 [22]): 2.6%; Activity (M21 [23]): Active
10 | O=C(NCCCl)Nc1ccc(S(=O)(=O)Oc2ccc(O)cc2)cc1 |  |  |  |  | IC50 ([1]; ht-1080): Not Active
11 | COc1ccc(OS(=O)(=O)c2ccc(NC(=O)NCCCl)cc2)cc1OC | 13 | 15 | 11 | 12 | 
12 | Cc1ccc(OS(=O)(=O)c2ccc(NC(=O)NCCCl)cc2)c(C)c1 | 3.6 | 3.9 | 1.3 | 2.1 | Activity (M21 [24]): 28.4%; Activity (M21 [25]): 46.4%; Activity (M21 [26]): 23.8%; Activity (M21 [27]): 1.4%; Activity (M21 [28]): Active
13 | O=C(NCCCl)Nc1ccc(S(=O)(=O)Oc2ccccc2I)cc1 | 1.5 | 1.51 | 1.2 | 1.9 | Activity (M21 [29]): 36.4%; Activity (M21 [30]): 46.9%; Activity (M21 [31]): 15%; Activity (M21 [32]): 1.7%; Activity (M21 [33]): Active
14 | COc1ccccc1OS(=O)(=O)c1ccc(NC(=O)NCCCl)cc1 | 13 | 19 | 8.3 | 15 | 
15 | CCc1ccccc1OS(=O)(=O)c1ccc(NC(=O)NCCCl)cc1 | 3.3 | 4.1 | 1.2 | 2.1 | Activity (M21 [24]): 34.7%; Activity (M21 [25]): 44.1%; Activity (M21 [26]): 19.2%; Activity (M21 [27]): 2%
16 | CC(C)c1ccccc1OS(=O)(=O)c1ccc(NC(=O)NCCCl)cc1 | 1.5 | 1.8 | 0.84 | 1.5 | Activity (M21 [29]): 23.6%; Activity (M21 [30]): 51.8%; Activity (M21 [31]): 23.4%; Activity (M21 [32]): 1.2%; Activity (M21 [33]): Active
17 | Cc1cc(C)cc(OS(=O)(=O)c2ccc(NC(=O)NCCCl)cc2)c1 | 1.8 | 2.9 | 2.4 | 1.7 | 
18 | CN(C)c1ccc(OS(=O)(=O)c2ccc(NC(=O)NCCCl)cc2)cc1 |  |  |  |  | IC50 ([1]; ht-1080): Not Active
19 | CCc1cccc(OS(=O)(=O)c2ccc(NC(=O)NCCCl)cc2)c1 | 5.6 | 7.1 | 3.8 | 6 | Activity (M21 [7]): 5%; Activity (M21 [8]): 15.2%; Activity (M21 [9]): 11.3%; Activity (M21 [10]): 68.5%

Further lines, with some results ahead:

Row | IC50 (HT-29) [µM] | IC50 (MCF7) [µM] | SMILES | IC50 [1, 34] [µM] | IC50 (M21 [2]) [µM] | other results
20 | 1.3 | 1.8 | O=C(NCCCl)Nc1ccc(S(=O)(=O)Oc2cccc(I)c2)cc1 | 1.4 | 1.2 | Activity (M21 [3]): 3.6%; Activity (M21 [4]): 2%; Activity (M21 [5]): 4.9%; Activity (M21 [6]): 89.5%
21 | 12 | 14 | O=C(NCCCl)Nc1ccc(S(=O)(=O)Oc2ccc(F)cc2)cc1 | 11 | 12 | 
22 | 22 | 23 | COc1ccc(OS(=O)(=O)c2ccc(NC(=O)NCCCl)cc2)cc1 | 15 | 17 | 
23 | 15 | 17 | CC(C)(C)c1ccc(OS(=O)(=O)c2ccc(NC(=O)NCCCl)cc2)cc1 | 6.8 | 18 | 
24 | 17 | 19 | O=C(NCCCl)Nc1ccc(S(=O)(=O)Oc2ccccc2)cc1 | 8.8 | 16 | 
25 | 9.5 | 11 | O=C(NCCCl)Nc1ccc(S(=O)(=O)Oc2ccc(I)cc2)cc1 | 8.7 | 11 | 
26 | 11 | 13 | CCCc1ccc(OS(=O)(=O)c2ccc(NC(=O)NCCCl)cc2)cc1 | 5.2 | 12 | 
27 | 18 | 19 | N#Cc1ccc(OS(=O)(=O)c2ccc(NC(=O)NCCCl)cc2)cc1 | 14 | 19 | 
28 | 15 | 16 | CCc1ccc(OS(=O)(=O)c2ccc(NC(=O)NCCCl)cc2)cc1 | 9.8 | 16 | 
29 | 20 | 19 | Cc1ccc(OS(=O)(=O)c2ccc(NC(=O)NCCCl)cc2)cc1 | 12 | 17 | 
30 | 6.3 | 7.3 | O=C(NCCCl)Nc1ccc(S(=O)(=O)Oc2ccc(Cl)cc2)cc1 | 5.9 | 6 | Activity (M21 [15]): 8.6%; Activity (M21 [16]): 19%; Activity (M21 [17]): 6.6%; Activity (M21 [18]): 65.8%
31 | 6 | 7.2 | Cc1cccc(OS(=O)(=O)c2ccc(NC(=O)NCCCl)cc2)c1 | 5.8 | 6.2 | 
